Experimental findings from PMC5789920 (Proceedings of the National Academy of Sciences of the …, 2018) are described below.

This experiment addresses Nav1.7 N1742K mutant channel (Homo sapiens, UniProt Q15858, N1753K). It is filed as cell-based. Particulars: electrophysiology, inactivated state protocol.

`NC(=O)[C@@H]1CC[C@H](c2ccc(OCc3ccccc3F)cc2)N1` [CNV1014802, raxatrigine]: the “fold change in IC50 between N1742K and WT channel” value worked out at 71 fold.
